In patent US20070149456A1, “Epithelial sodium channel inhibiting agents and uses therefor” (University of Pittsburgh, priority 2005, published 2007):

Biological target: T1, wild-type ENaC co-expressed with prostasin (Mus musculus, UniProt Q61180+Q9WU38+Q9WU39)
T1 construct: expressed in transfected cells; host or cells: Xenopus laevis oocytes (cRNA co-injection)
Assay: Two-electrode voltage clamp in oocytes co-expressing ENaC and prostasin
Format: cell-based
Conditions: α-26 1 μM and 10 μM, aprotinin 1 μM present
From the text: Oocyte Expression—cRNAs for α, β, γ mouse ENaC (wild-type and mutant) subunits and mouse prostasin were synthesized with T3 or T7 m-Message mMachineTM (Ambion, Austin, Tex.). Subunits carrying furin cleavage consensus site mutations and the corresponding wild-type subunits have amino-terminal HA and carboxyl-terminal V5 tags (Hughey, R. P., Bruns, J. B., Kinlough, C. L., Harkleroad, K. L., Tong, Q., Carattino, M. D., Johnson, J. P., Stockand, J. D., and Kleyman, T. R. (2004) J. Biol. Chem. 279, 18111-18114 18). Stage V-VI Xenopus laevis oocytes were pretreated with 1.5 mg/ml of type IV collagenase and injected with 0.5-2 ng of cRNA/subunit. Injected oocytes were maintained as previously reported (Carattino, M. D., Hill, W. G., and Kleyman, T. R. (2003), Arachidonic Acid Regulates Surface Expression of Epithelial Sodium Channels, J Biol. Chem. 278, 36202-36213 29).
Two-electrode Voltage Clamp—Two-electrode voltage clamp (TEV) was performed as previously described (Carattino, M. D., Hill, W. G., and Kleyman, T. R. (2003) J Biol. Chem. 278, 36202-36213 29). The extracellular solution (TEV solution) was (in mM): 110 NaCl, 2 KCl, 1.54 CaCl2, 10 HEPES, pH 7.4, or otherwise as indicated. […] ENaC-mediated whole cell Na^+ currents, at −60 mV,were defined as the amiloride-sensitive component of the current. […]

T1 sequence (Q61180 1-205): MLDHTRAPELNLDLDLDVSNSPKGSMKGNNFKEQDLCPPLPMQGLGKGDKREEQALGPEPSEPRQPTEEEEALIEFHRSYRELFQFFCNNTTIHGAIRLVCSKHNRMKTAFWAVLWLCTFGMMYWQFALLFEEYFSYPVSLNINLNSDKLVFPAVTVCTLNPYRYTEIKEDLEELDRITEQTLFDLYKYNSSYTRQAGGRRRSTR
T1 sequence (Q61180 232-699): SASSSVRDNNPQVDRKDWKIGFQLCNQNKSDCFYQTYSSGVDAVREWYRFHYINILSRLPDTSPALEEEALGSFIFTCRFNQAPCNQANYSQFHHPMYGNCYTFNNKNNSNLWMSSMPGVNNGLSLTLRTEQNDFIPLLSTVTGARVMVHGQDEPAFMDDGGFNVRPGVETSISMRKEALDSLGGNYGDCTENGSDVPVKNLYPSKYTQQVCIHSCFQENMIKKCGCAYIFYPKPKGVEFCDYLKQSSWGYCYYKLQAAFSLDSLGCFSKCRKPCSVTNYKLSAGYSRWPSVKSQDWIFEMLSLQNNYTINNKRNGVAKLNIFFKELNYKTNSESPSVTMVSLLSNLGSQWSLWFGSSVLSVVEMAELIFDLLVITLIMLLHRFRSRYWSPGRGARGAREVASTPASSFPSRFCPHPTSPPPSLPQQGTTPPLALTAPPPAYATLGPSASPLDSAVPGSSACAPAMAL
T1 sequence (Q9WU38 whole entry): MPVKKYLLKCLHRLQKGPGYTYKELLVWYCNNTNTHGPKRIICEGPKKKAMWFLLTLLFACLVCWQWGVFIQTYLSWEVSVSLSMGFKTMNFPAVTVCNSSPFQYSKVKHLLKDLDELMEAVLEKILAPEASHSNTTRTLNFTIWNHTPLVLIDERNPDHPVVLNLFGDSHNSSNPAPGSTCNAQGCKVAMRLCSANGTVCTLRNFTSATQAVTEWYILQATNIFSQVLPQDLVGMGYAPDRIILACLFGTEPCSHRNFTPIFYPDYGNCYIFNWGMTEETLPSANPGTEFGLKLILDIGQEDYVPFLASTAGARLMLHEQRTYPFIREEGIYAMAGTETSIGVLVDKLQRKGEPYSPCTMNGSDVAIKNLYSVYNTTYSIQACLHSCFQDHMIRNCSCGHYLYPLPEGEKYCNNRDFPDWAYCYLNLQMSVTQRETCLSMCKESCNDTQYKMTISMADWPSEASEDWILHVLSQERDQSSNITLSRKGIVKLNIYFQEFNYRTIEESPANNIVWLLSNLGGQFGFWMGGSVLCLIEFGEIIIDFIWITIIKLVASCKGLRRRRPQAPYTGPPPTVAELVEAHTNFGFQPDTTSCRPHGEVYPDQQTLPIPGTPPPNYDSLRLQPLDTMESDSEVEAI
T1 sequence (Q9WU39 1-143): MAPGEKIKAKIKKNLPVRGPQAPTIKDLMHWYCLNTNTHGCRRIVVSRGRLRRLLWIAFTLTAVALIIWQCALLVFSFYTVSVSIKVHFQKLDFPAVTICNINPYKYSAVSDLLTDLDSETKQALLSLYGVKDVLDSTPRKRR
T1 sequence (Q9WU39 187-655): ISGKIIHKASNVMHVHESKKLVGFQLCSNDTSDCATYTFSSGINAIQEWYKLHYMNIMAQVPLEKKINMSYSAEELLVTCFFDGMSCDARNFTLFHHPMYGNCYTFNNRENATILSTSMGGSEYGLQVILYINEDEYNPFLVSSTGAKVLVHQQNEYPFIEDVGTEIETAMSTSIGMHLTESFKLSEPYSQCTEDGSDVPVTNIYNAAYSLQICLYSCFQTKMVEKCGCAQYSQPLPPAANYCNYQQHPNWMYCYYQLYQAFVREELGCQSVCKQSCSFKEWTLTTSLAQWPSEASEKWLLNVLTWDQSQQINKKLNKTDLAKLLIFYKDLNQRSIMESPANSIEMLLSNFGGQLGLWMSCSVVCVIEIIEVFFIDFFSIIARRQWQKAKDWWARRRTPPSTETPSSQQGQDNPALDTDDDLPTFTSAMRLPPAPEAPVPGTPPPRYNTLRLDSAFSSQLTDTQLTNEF

## Ac-DLRGALPHPLQRLRTPPPPNPARSAR-NH2 [α-26]
  effect of prostasin co-expression on α-26-dependent inhibition of ENaC: significantly reduced the efficacy
